# Square brackets hold non-standard residues; d marks the D form. Peptide text beside a SMILES is read from it. * marks the point of attachment. Phe(3-Cl) = N[C@@H](Cc1cccc(Cl)c1)C(=O)O; 2Nal = N[C@@H](Cc1ccc2ccccc2c1)C(=O)O; Arg(Me) = CNC(=N)NCCC[C@H](N)C(=O)O; Fmoc = O=C(OCC1c2ccccc2-c2ccccc21)*; 2Pal = N[C@@H](Cc1ccccn1)C(=O)O; 3Pal = N[C@@H](Cc1cccnc1)C(=O)O; d4Pal = N[C@H](Cc1ccncc1)C(=O)O; azaGly = NNC(=O)O
# Biological target: T1, hOT7T175 (Homo sapiens, UniProt Q969F8, L364H)
# Assay: hOT7T175 receptor binding activity: binding inhibition of Cy-5-labeled metastin (40-54) on hOT7T175-expressed CHO cells
# Set-up: expressed in transfected cells; host or cells: CHO cells
# Conditions: not given
# Procedure: Assay for hOT7T175 Receptor Binding Activity
# h0T7T175-Expressed CHO cells were cultured in MEM-cc medium (nucleic acid-free) containing 10% dialyzed serum. The medium was removed and the adherent cells were washed with PBS. Then, PBS containing 5 mM EDTA was added and the cells were scraped from a flask with a cell scraper. […] To each well of a 96-Well Black Clear Bottom Plate (Applied Biosystems, Inc.), 10 μL of assay buffer containing 1% dimethylsulfoxide was added to examine total binding, 10 μL of 10 μM non-labeled peptide (having the same amino acid sequence as that of the labeled one) solution diluted with assay buffer to examine non-specific binding, and 10 μL of a test compound diluted with assay buffer to examine the binding inhibition activity of the test compound, respectively. Furthermore, 90 μL each of the cell suspension was dispensed to each well. […] The specific binding is a value obtained by subtracting the non-specific binding from the total binding.
# T1 sequence (Q969F8 whole entry L364H): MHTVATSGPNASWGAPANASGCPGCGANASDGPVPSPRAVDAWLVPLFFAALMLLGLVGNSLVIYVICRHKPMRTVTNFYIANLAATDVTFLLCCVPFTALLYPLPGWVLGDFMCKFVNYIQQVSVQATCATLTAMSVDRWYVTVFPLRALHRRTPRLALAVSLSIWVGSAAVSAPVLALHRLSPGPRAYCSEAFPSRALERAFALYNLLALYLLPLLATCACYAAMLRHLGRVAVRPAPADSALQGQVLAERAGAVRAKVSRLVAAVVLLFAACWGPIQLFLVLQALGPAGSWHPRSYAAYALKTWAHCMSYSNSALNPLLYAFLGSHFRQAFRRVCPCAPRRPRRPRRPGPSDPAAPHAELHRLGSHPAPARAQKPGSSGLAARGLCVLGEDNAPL
row,Molecule,IC50
1,"CNC(=N)NCCC[C@H](NC(=O)[C@H](CC(C)C)NC(=O)NNC(=O)[C@H](Cc1ccccc1)NC(=O)[C@H](CO)NC(=O)[C@H](CC(N)=O)NC(=O)[C@H](Cc1ccccn1)NC(=O)[C@H](CC(N)=O)NC(=O)[C@H](N)Cc1ccc(O)cc1)C(=O)N[C@@H](Cc1ccccc1)C(N)=O [Compound No. 285, D-Tyr-Asn-Pya(2)-Asn-Ser-Phe-AzaGly-Leu-Arg(Me)-Phe-NH2] (H-[dY]N[2Pal]NSF[azaGly]L[Arg(Me)]F-NH2)",40 nM
2,"CNC(=N)NCCC[C@H](NC(=O)[C@H](CC(C)C)NC(=O)CNC(=O)[C@H](Cc1ccccc1)NC(=O)[C@H](CO)NC(=O)[C@H](CC(N)=O)NC(=O)[C@H](Cc1c[nH]c2ccccc12)NC(=O)OCC1c2ccccc2-c2ccccc21)C(=O)N[C@@H](Cc1ccccc1)C(N)=O [Compound No. 145, Fmoc-Trp-Asn-Ser-Phe-Gly-Leu-Arg(Me)-Phe-NH2] (Fmoc-WNSFGL[Arg(Me)]F-NH2)",120 nM
3,CC(C)C[C@H](NC(=O)CNC(=O)[C@H](Cc1ccccc1)NC(=O)[C@H](CO)NC(=O)[C@H](CC(N)=O)NC(=O)[C@H](C)NC(=O)[C@H](CC(N)=O)NC(=O)[C@@H](N)Cc1ccc(O)cc1)C(=O)N[C@@H](CCCNC(=N)N)C(=O)N[C@@H](Cc1ccccc1)C(N)=O [Compound No. 67] (H-YNANSFGLRF-NH2),27 nM
4,"CC[C@H](C)[C@H](NC(=O)[C@H](N)Cc1ccc(O)cc1)C(=O)N[C@@H](CC(N)=O)C(=O)N[C@@H](CO)C(=O)N[C@@H](Cc1ccccc1)C(=O)NNC(=O)N[C@@H](CC(C)C)C(=O)N[C@@H](CCCNC(=N)NC)C(=O)N[C@@H](Cc1ccccc1)C(N)=O [Compound No. 240, D-Tyr-Ile-Asn-Ser-Phe-AzaGly-Leu-Arg(Me)-Phe-NH2] (H-[dY]INSF[azaGly]L[Arg(Me)]F-NH2)",17 nM
5,"CNC(N)=NCCC[C@H](NC(=O)[C@H](CC(C)C)NC(=O)NNC(=O)[C@H](Cc1ccccc1)NC(=O)[C@H](CO)NC(=O)[C@H](CC(N)=O)NC(=O)[C@@H](Cc1ccncc1)NC(=O)[C@H](CC(N)=O)NC(=O)[C@H](N)Cc1ccc(O)cc1)C(=O)N[C@@H](Cc1ccccc1)C(N)=O [Compound No. 302, D-Tyr-Asn-D-Pya(4)-Asn-Ser-Phe-AzaGly-Leu-Arg(Me)-Phe-NH2] (H-[dY]N[d4Pal]NSF[azaGly]L[Arg(Me)]F-NH2)",7.7 nM
6,"CNC(=N)NCCC[C@H](NC(=O)[C@H](CC(C)C)NC(=O)NNC(=O)[C@H](Cc1ccccc1)NC(=O)[C@H](CO)NC(=O)[C@H](CC(N)=O)NC(=O)[C@@H]1CCCN1C(=O)[C@H](CC(N)=O)NC(=O)[C@H](N)Cc1ccc(O)cc1)C(=O)N[C@@H](Cc1ccccc1)C(N)=O [Compound No. 253, D-Tyr-Asn-Pro-Asn-Ser-Phe-AzaGly-Leu-Arg(Me)-Phe-NH2] (H-[dY]NPNSF[azaGly]L[Arg(Me)]F-NH2)",27 nM
7,CNC(=N)NCCC[C@H](NC(=O)[C@H](CC(C)C)NC(=O)CNC(=O)[C@H](Cc1ccccc1)NC(=O)[C@H](CO)NC(=O)[C@H](CC(N)=O)NC(=O)[C@H](CO)NC(=O)[C@H](N)Cc1ccc(O)cc1)C(=O)N[C@@H](Cc1ccccc1)C(N)=O [Compound No. 226] (H-[dY]SNSFGL[Arg(Me)]F-NH2),100 nM
8,"CNC(N)=NCCC[C@H](NC(=O)[C@H](CC(C)C)NC(=O)NNC(=O)[C@H](Cc1ccccc1)NC(=O)[C@H](CO)NC(=O)[C@H](CC(N)=O)NC(=O)[C@H](Cc1ccccc1)NC(=O)[C@@H](CC(N)=O)NC(=O)[C@H](N)Cc1ccc(O)cc1)C(=O)N[C@@H](Cc1ccccc1)C(N)=O [Compound No. 257, D-Tyr-D-Asn-Phe-Asn-Ser-Phe-AzaGly-Leu-Arg(Me)-Phe-NH2] (H-[dY][dN]FNSF[azaGly]L[Arg(Me)]F-NH2)",40 nM
9,CC(C)C[C@H](NC(=O)CNC(=O)[C@H](Cc1ccccc1)NC(=O)[C@H](CO)NC(=O)[C@H](CC(N)=O)NC(=O)[C@H](Cc1c[nH]c2ccccc12)NC(=O)[C@H](CC(=O)O)NC(=O)[C@@H](N)Cc1ccc(O)cc1)C(=O)N[C@@H](CCCNC(=N)N)C(=O)N[C@@H](Cc1ccccc1)C(N)=O [Compound No. 57] (H-YDWNSFGLRF-NH2),100 nM
10,"CNC(N)=NCCC[C@H](NC(=O)[C@H](CC(C)C)NC(=O)NNC(=O)[C@H](Cc1ccccc1)NC(=O)[C@H](CO)NC(=O)[C@H](CC(N)=O)NC(=O)[C@H](CO)NC(=O)[C@H](N)Cc1ccc(O)cc1)C(=O)N[C@@H](Cc1ccccc1)C(N)=O [Compound No. 239, D-Tyr-Ser-Asn-Ser-Phe-AzaGly-Leu-Arg(Me)-Phe-NH2] (H-[dY]SNSF[azaGly]L[Arg(Me)]F-NH2)",120 nM
11,"CNC(=N)NCCC[C@H](NC(=O)[C@H](CC(C)C)NC(=O)NNC(=O)[C@H](Cc1ccccc1)NC(=O)[C@H](CO)NC(=O)[C@H](CC(N)=O)NC(=O)[C@H](Cc1cccnc1)NC(=O)[C@H](CC(N)=O)NC(=O)[C@H](N)Cc1ccc(O)cc1)C(=O)N[C@@H](Cc1ccccc1)C(N)=O [Compound No. 251, D-Tyr-Asn-Pya(3)-Asn-Ser-Phe-AzaGly-Leu-Arg(Me)-Phe-NH2] (H-[dY]N[3Pal]NSF[azaGly]L[Arg(Me)]F-NH2)",87 nM
12,CC(C)C[C@H](NC(=O)CNC(=O)[C@H](Cc1ccccc1)NC(=O)[C@H](CO)NC(=O)[C@H](CC(N)=O)NC(=O)[C@H](Cc1c[nH]c2ccccc12)NC(=O)[C@H](CC(C)C)NC(=O)[C@@H](N)Cc1ccc(O)cc1)C(=O)N[C@@H](CCCNC(=N)N)C(=O)N[C@@H](Cc1ccccc1)C(N)=O [Compound No. 59] (H-YLWNSFGLRF-NH2),340 nM
13,CC(C)C[C@H](NC(=O)CNC(=O)[C@H](Cc1ccccc1)NC(=O)[C@H](CO)NC(=O)[C@H](CC(N)=O)NC(=O)[C@H](Cc1c[nH]c2ccccc12)NC(=O)[C@H](CC(N)=O)NC(=O)[C@@H](N)Cc1ccc(O)cc1)C(=O)N[C@@H](CCCCN)C(=O)N[C@@H](Cc1ccccc1)C(N)=O [Compound No. 44] (H-YNWNSFGLKF-NH2),190 nM

# Biological target: T1, hOT7T175
# Assay: Intracellular Ca ion level-increasing activity using FLIPR in hOT7T175/CHO
# Assay type: cell-based
# Set-up: expressed in transfected cells; host or cells: CHO/dhfr- cells, obtained from ATCC
# Conditions: relative, Metastin (1-54) = 1
row,Specific Activity (intracellular Ca ion level-increasing activity),Molecule
1,1,"CNC(=N)NCCC[C@H](NC(=O)[C@H](CC(C)C)NC(=O)NNC(=O)[C@H](Cc1ccccc1)NC(=O)[C@H](CO)NC(=O)[C@H](CC(N)=O)NC(=O)[C@@H](NC(=O)[C@H](N)Cc1ccc(O)cc1)[C@@H](C)O)C(=O)N[C@@H](Cc1ccccc1)C(N)=O [Compound No. 241, D-Tyr-Thr-Asn-Ser-Phe-AzaGly-Leu-Arg(Me)-Phe-NH2] (H-[dY]TNSF[azaGly]L[Arg(Me)]F-NH2)"
2,2,"CNC(=N)NCCC[C@H](NC(=O)[C@H](CC(C)C)NC(=O)NNC(=O)[C@H](Cc1ccccc1)NC(=O)[C@H](CO)NC(=O)[C@H](CC(N)=O)NC(=O)[C@H](Cc1ccc2ccccc2c1)NC(=O)[C@H](CC(N)=O)NC(=O)[C@H](N)Cc1ccc(O)cc1)C(=O)N[C@@H](Cc1ccccc1)C(N)=O [Compound No. 246, D-Tyr-Asn-Nal(2)-Asn-Ser-Phe-AzaGly-Leu-Arg(Me)-Phe-NH2] (H-[dY]N[2Nal]NSF[azaGly]L[Arg(Me)]F-NH2)"
3,1,Dap-D-Tyr-Asn-Trp-Asn-Ser-Phe-Gly-Leu-Arg(Me)-Phe-NH2 [Compound No. 387]
4,1,CNC(=N)NCCC[C@H](NC(=O)[C@H](CC(C)C)NC(=O)CNC(=O)[C@H](Cc1ccccc1)NC(=O)[C@H](CO)NC(=O)[C@H](C)NC(=O)[C@H](Cc1c[nH]c2ccccc12)NC(=O)[C@H](CC(N)=O)NC(=O)[C@H](N)Cc1ccc(O)cc1)C(=O)N[C@@H](Cc1ccccc1)C(N)=O [Compound No. 210] (H-[dY]NWASFGL[Arg(Me)]F-NH2)
5,2,CC(C)C[C@H](NC(=O)CNC(=O)[C@H](Cc1ccccc1)NC(=O)[C@H](CO)NC(=O)[C@H](CC(N)=O)NC(=O)[C@H](Cc1c[nH]c2ccccc12)NC(=O)[C@H](CC(N)=O)NC(=O)[C@H](Cc1ccc(O)cc1)NC(=O)OCC1c2ccccc2-c2ccccc21)C(=O)N[C@@H](CCCNC(=N)N)C(=O)N[C@@H](Cc1ccccc1)C(N)=O [Compound No. 31]
6,1,CCNC(=N)NCCC[C@H](NC(=O)[C@H](CC(C)C)NC(=O)CNC(=O)[C@H](Cc1ccccc1)NC(=O)[C@H](CO)NC(=O)[C@H](CC(N)=O)NC(=O)[C@H](Cc1c[nH]c2ccccc12)NC(=O)[C@H](CC(N)=O)NC(=O)[C@H](N)Cc1ccc(O)cc1)C(=O)N[C@@H](Cc1ccccc1)C(N)=O [Compound No. 192]
7,2,"CNC(=N)NCCC[C@H](NC(=O)[C@H](CC(C)C)NC(=O)NNC(=O)[C@H](Cc1ccccc1)NC(=O)[C@H](CO)NC(=O)[C@H](CC(N)=O)NC(=O)[C@@H](Cc1ccncc1)NC(=O)[C@H](CC(N)=O)NC(=O)[C@H](N)Cc1ccc(O)cc1)C(=O)N[C@@H](Cc1ccccc1)C(N)=O [Compound No. 302, D-Tyr-Asn-D-Pya(4)-Asn-Ser-Phe-AzaGly-Leu-Arg(Me)-Phe-NH2] (H-[dY]N[d4Pal]NSF[azaGly]L[Arg(Me)]F-NH2)"

row,Molecule,Specific Activity (intracellular Ca ion level-increasing activity)
1,"CNC(=N)NCCC[C@H](NC(=O)[C@H](CC(C)C)NC(=O)NNC(=O)[C@H](Cc1ccccc1)NC(=O)[C@H](CO)NC(=O)[C@H](CC(N)=O)NC(=O)[C@H](Cc1cccc(Cl)c1)NC(=O)[C@H](CC(N)=O)NC(=O)[C@H](N)Cc1ccc(O)cc1)C(=O)N[C@@H](Cc1ccccc1)C(N)=O [Compound No. 248, D-Tyr-Asn-Phe(3Cl)-Asn-Ser-Phe-AzaGly-Leu-Arg(Me)-Phe-NH2] (H-[dY]N[Phe(3-Cl)]NSF[azaGly]L[Arg(Me)]F-NH2)",2

# Reference: patent publication US8361968B2 (Takeda Pharmaceutical Company Limited, priority 2002, dated 2013)
